Data taken from US20240002391A1, “4-ALKOXYPYRROLO[2,1-F][1,2,4]TRIAZINES AND PREPARATION AND USES THEREOF” (BioSplice Therapeutics, Inc., priority 2022, published 2024).

What follows are molecules tested against recombinant DYRK1A kinase (Homo sapiens (Human), UniProt Q13627) (assay: DYRK1A kinase assay (Ser/Thr 18 peptide Z-lyte FRET)). Settings: DYRK1A kinase activity, Z-lyte Ser/Thr 18 peptide, 15 μM ATP; method text calls the value IC50; read-out: EC50 (the source's name).
Type: biochemical
Summary of the method: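 Steps: combine 0.25 μg/mL kinase, 15 μM ATP and 4 μM peptide with test compound; incubate 1 h at room temperature; add diluted development reagent for another hour; read coumarin and fluorescein emission at Ex 400. The emission ratio yields percent phosphorylation, from which IC50 is derived.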

SMILES | IC50
COc1nc(N[C@H]2CCN(C(C)=O)C[C@H]2F)nn2ccc(-c3ccc4nnn(C(C)C)c4c3)c12 [Compound 686, 1-((3R,4S)-3-Fluoro-4-((5-(1-isopropyl-1H-benzo[d][1,2,3]triazol-6-yl)-4-methoxypyrrolo[2,1-f][1,2,4]triazin-2-yl)amino)piperidin-1-yl)ethan-1-one] | 3.4 nM
COc1nc(N[C@H]2CCN(C3COC3)C[C@H]2F)nn2ccc(-c3ccc4nnn(C(C)C)c4c3)c12 [Compound 688, N-((3R,4S)-3-fluoro-1-(oxetan-3-yl)piperidin-4-yl)-5-(1-isopropyl-1H-benzo[d][1,2,3]triazol-6-yl)-4-methoxypyrrolo[2,1-f][1,2,4]triazin-2-amine] | 2.3 nM
COc1nc(N[C@H]2CCN(C3(C#N)COC3)C[C@H]2F)nn2ccc(-c3ccc4nnn(C(C)C)c4c3)c12 [Compound 690, 3-((3R,4S)-3-fluoro-4-((5-(1-isopropyl-1H-benzo[d][1,2,3]triazol-6-yl)-4-methoxypyrrolo[2,1-f][1,2,4]triazin-2-yl)amino)piperidin-1-yl)oxetane-3-carbonitrile] | 7.8 nM
COc1nc(N[C@@H]2CCN(C(C)=O)CC2(F)F)nn2ccc(-c3ccc4nnn(C(C)C)c4c3)c12 [Compound 691, (R)-1-(3,3-Difluoro-4-((5-(1-isopropyl-1H-benzo[d][1,2,3]triazol-6-yl)-4-methoxypyrrolo[2,1-f][1,2,4]triazin-2-yl)amino)piperidin-1-yl)ethan-1-one] | 1.4 nM
COc1nc(NCC(C)(C)C#N)nn2ccc(-c3ccc4nnn(CC(F)F)c4c3)c12 [Compound 695, 3-((5-(1-(2,2-Difluoroethyl)-1H-benzo[d][1,2,3]triazol-6-yl)-4-methoxypyrrolo[2,1-f][1,2,4]triazin-2-yl)amino)-2,2-dimethylpropanenitrile] | 1.3 nM
COc1nc(NCC(C)(C)O)nn2ccc(-c3ccc4nnn(CC(F)F)c4c3)c12 [Compound 696, 1-((5-(1-(2,2-Difluoroethyl)-1H-benzo[d][1,2,3]triazol-6-yl)-4-methoxypyrrolo[2,1-f][1,2,4]triazin-2-yl)amino)-2-methylpropan-2-ol] | 1.3 nM
COc1nc(N[C@H]2C[C@@H](OCCO)C2)nn2ccc(-c3ccc4nnn(CC(F)F)c4c3)c12 [Compound 699, 2-(cis-3-((5-(1-(2,2-Difluoroethyl)-1H-benzo[d][1,2,3]triazol-6-yl)-4-methoxypyrrolo[2,1-f][1,2,4]triazin-2-yl)amino)cyclobutoxy)ethan-1-ol] | 1.4 nM
COc1nc(N[C@H]2C[C@@](C)(NC(C)=O)C2)nn2ccc(-c3ccc4nnn(CC(F)F)c4c3)c12 [Compound 702, N-((1s,3s)-3-((5-(1-(2,2-Difluoroethyl)-1H-benzo[d][1,2,3]triazol-6-yl)-4-methoxypyrrolo[2,1-f][1,2,4]triazin-2-yl)amino)-1-methylcyclobutyl)acetamide] | 1.2 nM
COc1nc(N[C@H]2C[C@@](C)(O)C2)nn2ccc(-c3ccc4nnn(CC(F)F)c4c3)c12 [Compound 710, (1s,3s)-3-((5-(1-(2,2-Difluoroethyl)-1H-benzo[d][1,2,3]triazol-6-yl)-4-methoxypyrrolo[2,1-f][1,2,4]triazin-2-yl)amino)-1-methylcyclobutan-1-ol] | 0.9 nM
COc1nc(N[C@H]2C[C@](C)(O)C2)nn2ccc(-c3ccc4nnn(CC(F)F)c4c3)c12 [Compound 711, (1r,3r)-3-((5-(1-(2,2-Difluoroethyl)-1H-benzo[d][1,2,3]triazol-6-yl)-4-methoxypyrrolo[2,1-f][1,2,4]triazin-2-yl)amino)-1-methylcyclobutan-1-ol] | 0.5 nM
COc1nc(N[C@H]2CC[C@@H](NC(C)=O)CC2)nn2ccc(-c3ccc4nnn(CC(F)F)c4c3)c12 [Compound 717, N-(cis-4-((5-(1-(2,2-Difluoroethyl)-1H-benzo[d][1,2,3]triazol-6-yl)-4-methoxypyrrolo[2,1-f][1,2,4]triazin-2-yl)amino)cyclohexyl)acetamide] | 2.3 nM
COc1nc(N[C@H]2CC[C@@H](O)CC2)nn2ccc(-c3ccc4nnn(CC(F)F)c4c3)c12 [Compound 718, cis-4-((5-(1-(2,2-Difluoroethyl)-1H-benzo[d][1,2,3]triazol-6-yl)-4-methoxypyrrolo[2,1-f][1,2,4]triazin-2-yl)amino)cyclohexan-1-ol] | 0.5 nM
COc1nc(N[C@H]2CC[C@H](O)CC2)nn2ccc(-c3ccc4nnn(CC(F)F)c4c3)c12 [Compound 719, trans-4-((5-(1-(2,2-Difluoroethyl)-1H-benzo[d][1,2,3]triazol-6-yl)-4-methoxypyrrolo[2,1-f][1,2,4]triazin-2-yl)amino)cyclohexan-1-ol] | 0.3 nM
COc1nc(NC2CCC(C)(C#N)CC2)nn2ccc(-c3ccc4nnn(CC(F)F)c4c3)c12 (stereo not drawn) [Compound 721, 4-((5-(1-(2,2-Difluoroethyl)-1H-benzo[d][1,2,3]triazol-6-yl)-4-methoxypyrrolo[2,1-f][1,2,4]triazin-2-yl)amino)-1-methylcyclohexane-1-carbonitrile] | 5.7 nM
COc1nc(N[C@H]2CC[C@@](C)(O)CC2)nn2ccc(-c3ccc4nnn(CC(F)F)c4c3)c12 [Compound 724, (1s,4s)-4-((5-(1-(2,2-Difluoroethyl)-1H-benzo[d][1,2,3]triazol-6-yl)-4-methoxypyrrolo[2,1-f][1,2,4]triazin-2-yl)amino)-1-methylcyclohexan-1-ol] | 1.1 nM
COc1nc(N[C@H]2CC[C@](C)(O)CC2)nn2ccc(-c3ccc4nnn(CC(F)F)c4c3)c12 [Compound 725, (1r,4r)-4-((5-(1-(2,2-difluoroethyl)-1H-benzo[d][1,2,3]triazol-6-yl)-4-methoxypyrrolo[2,1-f][1,2,4]triazin-2-yl)amino)-1-methylcyclohexan-1-ol] | 0.6 nM
CC[C@]1(O)CC[C@@H](Nc2nc(OC)c3c(-c4ccc5nnn(CC(F)F)c5c4)ccn3n2)CC1 [Compound 726, (1s,4s)-4-((5-(1-(2,2-Difluoroethyl)-1H-benzo[d][1,2,3]triazol-6-yl)-4-methoxypyrrolo[2,1-f][1,2,4]triazin-2-yl)amino)-1-ethylcyclohexan-1-ol] | 1.8 nM
CC[C@]1(O)CC[C@H](Nc2nc(OC)c3c(-c4ccc5nnn(CC(F)F)c5c4)ccn3n2)CC1 [Compound 727, (1r,4r)-4-((5-(1-(2,2-Difluoroethyl)-1H-benzo[d][1,2,3]triazol-6-yl)-4-methoxypyrrolo[2,1-f][1,2,4]triazin-2-yl)amino)-1-ethylcyclohexan-1-ol] | 2.8 nM
COc1nc(N[C@@H]2CN(C)C[C@@H]2F)nn2ccc(-c3ccc4nnn(CC(F)F)c4c3)c12 [Compound 730, 5-(1-(2,2-Difluoroethyl)-1H-benzo[d][1,2,3]triazol-6-yl)-N-((3R,4S)-4-fluoro-1-methylpyrrolidin-3-yl)-4-methoxypyrrolo[2,1-f][1,2,4]triazin-2-amine] | 4.6 nM
CCN1C[C@H](F)[C@H](Nc2nc(OC)c3c(-c4ccc5nnn(CC(F)F)c5c4)ccn3n2)C1 [Compound 732, 5-(1-(2,2-Difluoroethyl)-1H-benzo[d][1,2,3]triazol-6-yl)-N-((3R,4S)-1-ethyl-4-fluoropyrrolidin-3-yl)-4-methoxypyrrolo[2,1-f][1,2,4]triazin-2-amine] | 1 nM
COc1nc(N[C@@H]2CN(C(C)=O)C[C@@H]2F)nn2ccc(-c3ccc4nnn(CC(F)F)c4c3)c12 [Compound 734, 1-((3R,4S)-3-((5-(1-(2,2-Difluoroethyl)-1H-benzo[d][1,2,3]triazol-6-yl)-4-methoxypyrrolo[2,1-f][1,2,4]triazin-2-yl)amino)-4-fluoropyrrolidin-1-yl)ethan-1-one] | 0.8 nM
COc1nc(N[C@@H]2CN(C3COC3)C[C@@H]2F)nn2ccc(-c3ccc4nnn(CC(F)F)c4c3)c12 [Compound 739, 5-(1-(2,2-Difluoroethyl)-1H-benzo[d][1,2,3]triazol-6-yl)-N-((3R,4S)-4-fluoro-1-(oxetan-3-yl)pyrrolidin-3-yl)-4-methoxypyrrolo[2,1-f][1,2,4]triazin-2-amine] | 4.6 nM
COc1nc(N[C@@H]2CN(C3(C#N)COC3)C[C@@H]2F)nn2ccc(-c3ccc4nnn(CC(F)F)c4c3)c12 [Compound 741, 3-((3R,4S)-3-((5-(1-(2,2-Difluoroethyl)-1H-benzo[d][1,2,3]triazol-6-yl)-4-methoxypyrrolo[2,1-f][1,2,4]triazin-2-yl)amino)-4-fluoropyrrolidin-1-yl)oxetane-3-carbonitrile] | 1.2 nM
COc1nc(NC2CCN(C3COC3)CC2)nn2ccc(-c3ccc4nnn(CC(F)F)c4c3)c12 [Compound 750, 5-(1-(2,2-Difluoroethyl)-1H-benzo[d][1,2,3]triazol-6-yl)-4-methoxy-N-(1-(oxetan-3-yl)piperidin-4-yl)pyrrolo[2,1-f][1,2,4]triazin-2-amine] | 0.3 nM
COc1nc(N[C@H]2CCN(C)C[C@H]2F)nn2ccc(-c3ccc4nnn(CC(F)F)c4c3)c12 [Compound 754, 5-(1-(2,2-Difluoroethyl)-1H-benzo[d][1,2,3]triazol-6-yl)-N-((3R,4S)-3-fluoro-1-methylpiperidin-4-yl)-4-methoxypyrrolo[2,1-f][1,2,4]triazin-2-amine] | 1.7 nM
CCN1CC[C@H](Nc2nc(OC)c3c(-c4ccc5nnn(CC(F)F)c5c4)ccn3n2)[C@H](F)C1 [Compound 755, 5-(1-(2,2-Difluoroethyl)-1H-benzo[d][1,2,3]triazol-6-yl)-N-((3R,4S)-1-ethyl-3-fluoropiperidin-4-yl)-4-methoxypyrrolo[2,1-f][1,2,4]triazin-2-amine] | 2.3 nM
COc1nc(N[C@H]2CCN(CCO)C[C@H]2F)nn2ccc(-c3ccc4nnn(CC(F)F)c4c3)c12 [Compound 756, 2-((3R,4S)-4-((5-(1-(2,2-Difluoroethyl)-1H-benzo[d][1,2,3]triazol-6-yl)-4-methoxypyrrolo[2,1-f][1,2,4]triazin-2-yl)amino)-3-fluoropiperidin-1-yl)ethan-1-ol] | 1.4 nM
